These results are taken from patent US10059689B2, “Substituted heteroaryl compounds and methods of use” (Sunshine Lake Pharma Co., Ltd., priority 2014, dated 2018).

This assay has as its target T1, JAK1 (h) (Homo sapiens, UniProt P23458).
T1 construct: purchased Millipore UK Ltd (contract assay service)
The assay is described as follows: JAK1 (h) kinase assay. The format is biochemical. Here is the method: The above assay procedure can be used to determine the IC50 for inhibition and/or the inhibition constant, Ki. The IC50 is defined as the concentration of compound required to reduce the enzyme activity by 50% under the condition of the assay. The IC50 value is estimated by preparing a 10 point curve using a ½ log dilution series (for example, a typical curve may be prepared using the following compound concentrations: 3 μM, 1 μM, 0.3 μM, 0.1 μM, 0.03 μM, 0.01 μM, 0.003 μM, 0.001 μM, 0.0003 μM and 0 μM).
JAK1 (h) is incubated with 20 mM Tris/HCl pH 7.5, 0.2 mM EDTA, 500 μM GEEPLYWSFPAKKK, 10 mM MgAcetate and [γ-^33P-ATP] (specific activity approx. 500 cpm/pmol, concentration as required). The reaction is initiated by the addition of the MgATP mix. After incubation for 40 minutes at room temperature, the reaction is stopped by the addition of 3% phosphoric acid solution. 10 μL of the reaction is then spotted onto a P30 filtermat and washed three times for 5 minutes in 75 mM phosphoric acid and once in methanol prior to drying and scintillation counting.
The kinase assays described herein were performed at Millipore UK Ltd, Dundee Technology Park, Dundee DD2 1SW, UK.

By IC50 is commonly meant the midpoint of a concentration-inhibition curve.

Structures are written as SMILES.

T1 sequence (P23458 whole entry): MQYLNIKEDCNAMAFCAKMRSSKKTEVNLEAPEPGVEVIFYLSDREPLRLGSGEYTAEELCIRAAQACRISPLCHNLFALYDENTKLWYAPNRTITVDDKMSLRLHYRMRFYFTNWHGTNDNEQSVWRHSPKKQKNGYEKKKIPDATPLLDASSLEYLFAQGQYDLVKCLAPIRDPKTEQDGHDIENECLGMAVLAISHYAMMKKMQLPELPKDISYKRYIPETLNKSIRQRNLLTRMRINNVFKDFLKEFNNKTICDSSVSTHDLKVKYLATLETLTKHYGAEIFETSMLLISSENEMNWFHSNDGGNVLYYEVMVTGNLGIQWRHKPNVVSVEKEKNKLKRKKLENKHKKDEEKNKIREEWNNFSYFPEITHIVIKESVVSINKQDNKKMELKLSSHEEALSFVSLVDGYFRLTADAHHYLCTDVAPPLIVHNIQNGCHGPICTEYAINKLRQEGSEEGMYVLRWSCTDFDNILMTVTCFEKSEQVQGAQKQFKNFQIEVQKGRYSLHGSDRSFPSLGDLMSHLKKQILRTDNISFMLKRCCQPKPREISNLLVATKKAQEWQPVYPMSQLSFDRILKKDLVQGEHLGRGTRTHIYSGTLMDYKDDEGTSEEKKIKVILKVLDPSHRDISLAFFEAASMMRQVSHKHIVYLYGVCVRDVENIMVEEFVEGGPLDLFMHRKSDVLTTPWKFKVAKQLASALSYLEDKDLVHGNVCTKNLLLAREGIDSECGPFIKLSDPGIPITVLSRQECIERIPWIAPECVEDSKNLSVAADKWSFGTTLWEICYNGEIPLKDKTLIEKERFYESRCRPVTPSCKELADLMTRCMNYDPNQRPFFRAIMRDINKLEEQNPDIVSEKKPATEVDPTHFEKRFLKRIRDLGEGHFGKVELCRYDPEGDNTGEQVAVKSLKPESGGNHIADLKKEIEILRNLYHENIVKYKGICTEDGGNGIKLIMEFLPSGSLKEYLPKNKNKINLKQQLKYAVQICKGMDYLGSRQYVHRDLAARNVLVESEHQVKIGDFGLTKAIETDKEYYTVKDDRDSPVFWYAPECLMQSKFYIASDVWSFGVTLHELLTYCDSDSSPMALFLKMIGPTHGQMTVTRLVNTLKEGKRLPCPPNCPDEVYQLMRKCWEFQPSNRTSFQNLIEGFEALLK

`Cc1c2ccc(Nc3ncc(Cl)c(N(C)C4CCN(c5ccc(C#N)cn5)CC4)n3)cc2nn1C` [Ex. 8, 6-(4-((5-chloro-2-((2,3-dimethyl-2H-indazol-6-yl)amino)pyrimidin-4-yl) (methyl)amino)piperidin-1-yl)nicotinonitrile] returned a half-maximal inhibitory concentration (IC50) of 3 nM.
